Tests used:
S. aureus DSM 20231 [1] = test: Bliss interaction score (quartile over a dose matrix) (fitness difference); higher = more antagonism (negative = synergy)
In short: (§1)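 Quartiles of the Bliss score were taken over technical, biological and donor/recipient replicates. That score is observed fitness minus the product of the single-drug fitness values, which were inferred from combination data. Fitness itself is OD595 at entry into stationary phase divided by the plate's robust no-drug mean, with a cap at 1.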

S. aureus Newman [2] = test: as above
In short: as §1

B. subtilis 168 [3] = test: as above
In short: as §1

S. pneumoniae D39V [4] = test: as above
In short: as §1

S. aureus DSM 20231 [5] = test: fitness (endpoint OD595 vs no drug) (fraction); higher = more growth
In short: (§2)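 Volumes were 30 µl per well, or 55 µl for S. pneumoniae, in 384-well plates inoculated at OD595 0.01. Media were TSB, LB Lennox or CY at 37 °C, and OD595 was read every 30 min for 14 h with first-reading background subtraction. Fitness is the ratio of optical density at stationary-phase entry to the robust mean of no-drug controls. That ratio is capped at 1.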

S. aureus Newman [6] = test: as above
In short: as §2

B. subtilis 168 [7] = test: as above
In short: as §2

S. pneumoniae D39V [8] = test: as above
In short: as §2
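For Bliss interaction score (quartile over a dose matrix) in this document: first quartile when negative (synergy) and third quartile when positive (antagonism).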

CCCCCCCCCC(=O)N[C@@H](Cc1c[nH]c2ccccc12)C(=O)N[C@H](CC(N)=O)C(=O)N[C@@H](CC(=O)O)C(=O)N[C@@H]1C(=O)NCC(=O)N[C@@H](CCCN)C(=O)N[C@@H](CC(=O)O)C(=O)N[C@H](C)C(=O)N[C@@H](CC(=O)O)C(=O)NCC(=O)N[C@H](CO)C(=O)N[C@@H]([C@H](C)CC(=O)O)C(=O)N[C@@H](CC(=O)c2ccccc2N)C(=O)O[C@@H]1C [Daptomycin] + C[C@@H]1O[C@@H]1P(=O)(O)O [Fosfomycin]
Conditions | Bliss interaction score
B. subtilis 168 [3] | 0.063
S. aureus DSM 20231 [1] | -0.0509
S. aureus Newman [2] | 0.0452
S. pneumoniae D39V [4] | 0.0735

fitness
Conditions | first compound 0.125 µg/mL | first compound 0.25 µg/mL | first compound 0.5 µg/mL | first compound 1 µg/mL | first compound 2 µg/mL | first compound 4 µg/mL
B. subtilis 168 [7], partner 1.562 µg/mL | 0.686 | 0.728 | 0.771 | – | – | –
B. subtilis 168 [7], partner 3.124 µg/mL | 0.642 | 0.645 | 0.625 | – | – | –
B. subtilis 168 [7], partner 6.248 µg/mL | 0.492 | 0.468 | 0.511 | – | – | –
S. aureus DSM 20231 [5], partner 0.781 µg/mL | 0.742 | 0.659 | 0.818 | 0.879 | 0.778 | –
S. aureus DSM 20231 [5], partner 1.562 µg/mL | 0.589 | 0.586 | 0.621 | 0.609 | 0.601 | –
S. aureus DSM 20231 [5], partner 3.124 µg/mL | 0.498 | 0.496 | 0.505 | 0.495 | 0.508 | –
S. aureus Newman [6], partner 0.781 µg/mL | 0.657 | 0.674 | 0.703 | – | – | –
S. aureus Newman [6], partner 1.562 µg/mL | 0.536 | 0.534 | 0.534 | – | – | –
S. aureus Newman [6], partner 3.124 µg/mL | 0.233 | 0.172 | 0.16 | – | – | –
S. pneumoniae D39V [8], partner 1.25 µg/mL | – | – | – | 0.93 | 0.919 | –
S. pneumoniae D39V [8], partner 2.5 µg/mL | – | – | – | 0.844 | 0.845 | 0.767
S. pneumoniae D39V [8], partner 5 µg/mL | – | – | – | 0.624 | 0.64 | 0.597

B. subtilis 168 [7], first compound 1 µg/mL, one replicate
Conditions | fitness
partner 1.562 µg/mL | 0.7
partner 3.124 µg/mL | 0.501
partner 6.248 µg/mL | 0.305

CCCCCCCCCC(=O)N[C@@H](Cc1c[nH]c2ccccc12)C(=O)N[C@H](CC(N)=O)C(=O)N[C@@H](CC(=O)O)C(=O)N[C@@H]1C(=O)NCC(=O)N[C@@H](CCCN)C(=O)N[C@@H](CC(=O)O)C(=O)N[C@H](C)C(=O)N[C@@H](CC(=O)O)C(=O)NCC(=O)N[C@H](CO)C(=O)N[C@@H]([C@H](C)CC(=O)O)C(=O)N[C@@H](CC(=O)c2ccccc2N)C(=O)O[C@@H]1C [Daptomycin] + C[n+]1ccc(-c2cc[n+](C)cc2)cc1 [Paraquat]
Conditions | Bliss interaction score
B. subtilis 168 [3] | 0.0589
S. aureus DSM 20231 [1] | -0.0451
S. aureus Newman [2] | 0.0526
S. pneumoniae D39V [4] | 0.0711

fitness
Conditions | first compound 0.125 µg/mL | first compound 0.25 µg/mL | first compound 0.5 µg/mL | first compound 1 µg/mL | first compound 2 µg/mL | first compound 4 µg/mL
B. subtilis 168 [7], partner 1.25 µg/mL | 0.901 | 0.93 | 0.85 | – | – | –
B. subtilis 168 [7], partner 2.5 µg/mL | 0.9 | 0.901 | 0.902 | – | – | –
B. subtilis 168 [7], partner 5 µg/mL | 0.894 | 0.857 | 0.81 | – | – | –
S. aureus DSM 20231 [5], partner 1.25 µg/mL | 0.906 | 0.9 | 0.942 | 0.932 | 0.883 | –
S. aureus DSM 20231 [5], partner 2.5 µg/mL | 0.898 | 0.923 | 0.991 | 0.968 | 0.995 | –
S. aureus DSM 20231 [5], partner 5 µg/mL | 0.93 | 0.927 | 0.924 | 1 | 0.907 | –
S. aureus Newman [6], partner 1.25 µg/mL | ≥ 1 | ≥ 1 | 0.995 | – | – | –
S. aureus Newman [6], partner 2.5 µg/mL | ≥ 1 | ≥ 1 | 0.977 | – | – | –
S. aureus Newman [6], partner 5 µg/mL | 0.974 | 0.945 | 0.9 | – | – | –
S. pneumoniae D39V [8], partner 1.5 µg/mL | – | – | – | 0.996 | 0.987 | 0.936
S. pneumoniae D39V [8], partner 3 µg/mL | – | – | – | 0.973 | 0.955 | 0.937
S. pneumoniae D39V [8], partner 6 µg/mL | – | – | – | 0.974 | 0.922 | 0.872

B. subtilis 168 [7], first compound 1 µg/mL, one replicate
Conditions | fitness
partner 1.25 µg/mL | 0.743
partner 2.5 µg/mL | 0.722
partner 5 µg/mL | 0.653

CC1(C)S[C@@H]2[C@H](NC(=O)[C@H](N)c3ccc(O)cc3)C(=O)N2[C@H]1C(=O)O [Amoxicillin] + CN(N=O)C(=O)N[C@@H](C=O)[C@@H](O)[C@H](O)[C@H](O)CO [Streptozotocin]
Conditions | Bliss interaction score
B. subtilis 168 [3] | 0.0362
S. aureus DSM 20231 [1] | -0.0844
S. aureus Newman [2] | -0.0299
S. pneumoniae D39V [4] | -0.0885

fitness
Conditions | first compound 0.0008 µg/mL | first compound 0.0015 µg/mL | first compound 0.003 µg/mL | first compound 0.0625 µg/mL | first compound 0.125 µg/mL | first compound 0.25 µg/mL
S. aureus DSM 20231 [5], partner 0.15 µg/mL | – | – | – | 0.434 | 0.362 | 0.0212
S. aureus DSM 20231 [5], partner 0.3 µg/mL | – | – | – | 0.496 | 0.286 | 0.0296
S. aureus DSM 20231 [5], partner 0.6 µg/mL | – | – | – | 0.41 | 0.234 | 0.0211
S. aureus Newman [6], partner 0.15 µg/mL | – | – | – | 0.769 | 0.736 | 0.753
S. aureus Newman [6], partner 0.3 µg/mL | – | – | – | 0.669 | 0.677 | 0.64
S. aureus Newman [6], partner 0.6 µg/mL | – | – | – | 0.523 | 0.524 | 0.491
S. pneumoniae D39V [8], partner 1.2 µg/mL | 0.935 | 0.866 | 0.844 | – | – | –
S. pneumoniae D39V [8], partner 2.4 µg/mL | 0.963 | 0.945 | 0.929 | – | – | –
S. pneumoniae D39V [8], partner 4.8 µg/mL | 0.928 | 0.877 | 0.812 | – | – | –

fitness, one replicate
Conditions | partner 0.15 µg/mL | partner 0.3 µg/mL | partner 0.6 µg/mL | partner 1.2 µg/mL | partner 2.4 µg/mL | partner 4.8 µg/mL
S. aureus DSM 20231 [5], first compound 0.5 µg/mL | 0.0024 | 0.0025 | 0 | – | – | –
S. pneumoniae D39V [8], first compound 0.006 µg/mL | – | – | – | 0.376 | 0.405 | 0.365
